# How the values were obtained:
# human LAT1 = human LAT1 (Homo sapiens, UniProt Q01650); test: [14C]L-leucine uptake inhibition test using human-LAT1 stably expressing HEK293 cell line; assay type: cell-based; set-up: having full-length cDNA of human LAT1 or LAT2 inserted under a promoter of CMV; expressed in transfected cells; key to Assay Data: degree of [14C]L-leucine uptake inhibition compared with BCH: a test compound having a higher inhibitory effect than BCH is denoted by A; a test compound having the same inhibitory effect as BCH is denoted by B; a test compound having a lower inhibitory effect than BCH is denoted by C
# Sequence of human LAT1 (Q01650 whole entry, one chain of several): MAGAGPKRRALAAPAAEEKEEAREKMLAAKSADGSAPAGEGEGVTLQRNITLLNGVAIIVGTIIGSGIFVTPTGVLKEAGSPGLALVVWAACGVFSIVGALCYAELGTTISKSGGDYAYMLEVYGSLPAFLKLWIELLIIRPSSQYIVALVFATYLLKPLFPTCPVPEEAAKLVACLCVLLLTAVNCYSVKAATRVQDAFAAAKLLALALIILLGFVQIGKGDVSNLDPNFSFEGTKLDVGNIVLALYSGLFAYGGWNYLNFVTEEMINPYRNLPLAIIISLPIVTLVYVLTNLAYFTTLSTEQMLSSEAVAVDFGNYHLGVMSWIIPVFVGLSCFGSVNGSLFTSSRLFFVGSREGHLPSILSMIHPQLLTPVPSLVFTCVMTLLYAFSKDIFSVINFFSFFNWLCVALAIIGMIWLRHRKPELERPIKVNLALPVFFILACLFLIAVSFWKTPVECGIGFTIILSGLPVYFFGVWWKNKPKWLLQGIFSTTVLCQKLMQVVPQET
# Outline: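 HEK293 cells stably expressing human LAT1, preincubated 10 min in Na^+-free HBSS, then exposed 1 min to 1 μM [14C]L-leucine with racemic compound (0.1, 1.0, 10, 0 μM). Lysate radioactivity counted by scintillation and normalized to protein as uptake per mg protein per minute; graded against BCH.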
# human LAT2 = molecular target: T1, human LAT2 (Homo sapiens, UniProt Q9UHI5); test: [14C]L-alanine uptake inhibition test using human-LAT2 stably expressing HEK293 cell line; assay type: cell-based
# T1 construct: having full-length cDNA of human LAT1 or LAT2 inserted under a promoter of CMV; expressed in transfected cells
# T1 sequence (Q9UHI5 1-535): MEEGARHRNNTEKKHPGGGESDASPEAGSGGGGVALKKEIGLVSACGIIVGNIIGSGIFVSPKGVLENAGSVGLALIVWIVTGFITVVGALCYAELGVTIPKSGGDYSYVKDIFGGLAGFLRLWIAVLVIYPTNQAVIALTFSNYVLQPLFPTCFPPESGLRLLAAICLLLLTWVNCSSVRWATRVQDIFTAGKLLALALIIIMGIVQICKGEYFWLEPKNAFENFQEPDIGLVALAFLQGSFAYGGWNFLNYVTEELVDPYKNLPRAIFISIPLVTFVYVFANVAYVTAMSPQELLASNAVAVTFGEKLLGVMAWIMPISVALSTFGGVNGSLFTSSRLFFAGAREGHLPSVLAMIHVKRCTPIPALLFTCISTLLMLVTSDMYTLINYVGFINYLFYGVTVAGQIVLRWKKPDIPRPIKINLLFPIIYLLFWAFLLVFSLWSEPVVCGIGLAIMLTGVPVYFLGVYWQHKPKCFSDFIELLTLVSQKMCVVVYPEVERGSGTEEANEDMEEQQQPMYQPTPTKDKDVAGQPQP
# T1 sequence (P08195 1-529 partner): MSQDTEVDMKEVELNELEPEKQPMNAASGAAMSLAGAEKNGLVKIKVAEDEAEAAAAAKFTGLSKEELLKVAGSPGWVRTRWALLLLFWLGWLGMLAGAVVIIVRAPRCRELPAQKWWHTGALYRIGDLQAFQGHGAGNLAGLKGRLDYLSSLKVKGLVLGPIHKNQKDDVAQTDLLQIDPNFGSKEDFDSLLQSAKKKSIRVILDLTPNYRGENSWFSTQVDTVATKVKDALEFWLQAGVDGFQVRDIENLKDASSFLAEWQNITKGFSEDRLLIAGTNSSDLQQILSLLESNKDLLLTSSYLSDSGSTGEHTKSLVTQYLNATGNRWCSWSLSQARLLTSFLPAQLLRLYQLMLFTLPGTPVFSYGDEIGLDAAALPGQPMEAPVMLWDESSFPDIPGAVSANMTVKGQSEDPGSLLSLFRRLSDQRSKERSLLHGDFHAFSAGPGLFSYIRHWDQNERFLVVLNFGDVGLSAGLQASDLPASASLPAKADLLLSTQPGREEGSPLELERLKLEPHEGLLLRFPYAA
# Text: HEK293 cells stably expressing human LAT1 and LAT2 were produced, respectively.
# A shuttle vector DNA (LAT1: pcDNA3.1(+) -hLAT1, LAT2: pcDNA3.1(+) -hLAT2; expression vector pcDNA3.1 (+) was produced by Invitrogen Corp.) having ampicillin and neomycin resistance markers and having full-length cDNA of human LAT1 or LAT2 inserted under a promoter of CMV (cytomegalovirus) was constructed. This vector was transfected into the HEK293 cells by a method using Lipofectamine (registered trademark) 2000 (Invitrogen Corp.) according to the manufacturer's instructions. […]
# [^14C]L-alanine uptake inhibition using the compound of Example 1-1 was performed using the human-LAT2 stably expressing HEK293 cell line. In the same manner as in the [^14C]L-leucine uptake inhibition experiment in the human-LAT1 stably expressing HEK293 cell line, the human-LAT2 stably expressing HEK293 cell line was seeded in a 24-well plate at 1×10^5 Cell/Well, and after 48 hours, 1 μM of [^14C]L-alanine was taken up in Na^+-free HBSS in the presence of the compound (0.1, 1.0, 10, 0 μM in each case), which is a racemic form, of Example 1-1 for 1 minute, then the uptake amount of [^14C]L-alanine and the protein amount of the cell lysate were measured, and the uptake amount of [^14C]L-alanine per 1 mg of protein in the cell per minute was determined.
compound,measurement,setting,value
"NC1(C(=O)O)CCc2ccc(Oc3ccc4ccccc4c3)cc2C1 (stereo not drawn) [Example 1-1, 2-carboxy-7-(naphthalene-2-yloxy)-1,2,3,4-tetrahydronaphthalene-2-aminium chloride]",suppression rate of labeled leucine uptake,human LAT1; 0.1 μM of the compound (racemic form),about 70%
same,Assay Data: degree of [14C]L-leucine uptake inhibition compared with BCH,"human LAT1; compound (racemic form) and BCH at 0.1, 1.0, 10 μM, 1 μM [14C]L-leucine, 1 minute, Na+-free HBSS",A
same,IC50,"human LAT1; racemic form, 1 μM [14C]L-leucine, 1 minute, read-out: 50% suppression concentration (racemic form), [14C]L-leucine uptake",≤ 100 nM
same,"LAT1 inhibitory effect, compounds singled out (in words)",human LAT1; same test as Table 1,particularly remarkable effects
same,inhibitory action on LAT2 alanine uptake compared with LAT1 leucine uptake inhibition,human LAT2; LAT2 versus LAT1 stably expressing HEK293 cell line,weaker inhibitory action
same,IC50,"human LAT2; racemic form, 1 μM [14C]L-alanine, 1 minute, Na+-free HBSS, read-out: 50% suppression concentration, [14C]L-alanine uptake",~1000 nM

# — patent US20260035339A1, “TETRAHYDRONAPHTHALENE DERIVATIVE” (ATRANSEN PHARMA LTD., priority 2022, published 2026)
